The results in this text go back to patent US11639503B2, “Anti-chymase aptamer and use for same” (RIBOMIC INC., priority 2017, dated 2023).

Oligonucleotides are written 5' to 3', each unit as a sugar letter and its base; * is a phosphorothioate linkage, no mark a phosphodiester; rarer units and linkages stand in square brackets, end groups in braces. Plain capitals give the bases only. r = 2'-OH (RNA); f = 2'-fluoro

The target in data set [1] is T1, chymase (recombinant, manufactured by SIGMA) (Homo sapiens, UniProt P23946).
T1 construct: purchased SIGMA
T1 sequence (P23946 22-247): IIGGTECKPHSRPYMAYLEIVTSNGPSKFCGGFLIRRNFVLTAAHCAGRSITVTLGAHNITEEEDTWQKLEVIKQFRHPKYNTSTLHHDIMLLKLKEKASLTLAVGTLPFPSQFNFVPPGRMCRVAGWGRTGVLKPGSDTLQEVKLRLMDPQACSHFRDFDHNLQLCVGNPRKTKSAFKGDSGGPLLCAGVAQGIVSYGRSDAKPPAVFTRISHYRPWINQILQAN
Nature of the data set: chymase enzyme activity inhibition, synthetic substrate Suc-Ala-Ala-Pro-Phe-MCA. The data set is classed as biochemical. On the procedure: A first method employs a synthetic substrate. A useful chymase substrate is Suc-Ala-Ala-Pro-Phe-MCA (4-methylcoumaryl-7-amide group) (manufactured by Peptide Institute, Inc.), which contains the 4-amino acid peptide “Ala-Ala-Pro-Phe” (SEQ ID NO: 41), a standard substrate for chymotrypsin-like proteases.
The assay is performed using a 96-well plate (F16 Black Maxisorp Fluoronunc, manufactured by Nunc), with a reaction mixture volume of 100 μL, in a buffer solution (solution C; see Example 2 below). First, each nucleic acid is prepared in solution C to obtain 50 μL solutions. After 10 μL of the 1 mM substrate prepared in solution C is added, the plate is set to the microplate reader SpectraMax190 (manufactured by Molecular Devices Corporation), and incubated at 37° C. for 5 minutes. Separately, 0.05 μg of chymase (recombinant, manufactured by SIGMA) is diluted in solution C, and 40 μL of this dilution is incubated at 37° C. for 5 minutes. The chymase solution is added to the mixture of the nucleic acid and substrate to initiate an enzyme reaction. The plate containing the reaction mixture is set to the microplate reader SpectraMax190 (manufactured by Molecular Devices Corporation), and examined for time-dependent changes in the fluorescence intensity at 37° C. for 5 minutes (excitation wavelength 380 nm, detection wavelength 460 nm). A linear approximation of the increase in the fluorescence of the AMC (7-amino-4-methylcoumarine) released from the substrate by chymase activity is generated, and its slope is taken as the initial reaction velocity. For control, samples are treated and analyzed in the same manner in two cases: use of a nucleic acid pool containing a random sequence of 30 or 40 nucleotides (negative control), and use of chymostatin, a known chymotrypsin-like serine protease inhibitor (positive control). Taking the initial reaction velocity without the nucleic acid and inhibitor as a 100% enzyme activity, the inhibitory rate for each test substance is calculated, and the inhibitor concentration required to cause a 50% inhibition of the enzyme activity (IC50) is determined.
Whether the nucleic acids shown by SEQ ID NO: 1-8 inhibit the enzyme activity of chymase was determined as described below. The chymase substrate used was Suc-Ala-Ala-Pro-Phe-MCA (manufactured by Peptide Institute, Inc.), which contains the 4-amino-acid peptide Ala-Ala-Pro-Phe, a standard substrate for chymotrypsin-like proteases. Here, Suc is a protecting succinyl group, and MCA is a 4-methylcoumaryl-7-amide group; upon cleavage of the C-terminal side of phenylalanine, AMC (7-amino-4-methylcoumarine) is released. By detecting the fluorescence of this AMC, the enzyme activity of chymase can be determined. The assay was performed using a 96-well plate (F16 Black Maxisorp Fluoronunc, manufactured by Nunc), with a reaction mixture volume of 100 μL, in solution C as a buffer solution. Here, the solution C is a mixed solution of 145 mM sodium chloride, 5.4 mM potassium chloride, 1.8 mM calcium chloride, 0.8 mM magnesium chloride, 20 mM Tris (pH 7.6), and 0.05% Tween20. First, nucleic acid was serially diluted in solution C to obtain 50 μL solutions. After 10 μL of the 1 mM substrate prepared in solution C was added thereto, the plate was set to the microplate reader SpectraMax190 (manufactured by Molecular Devices Corporation), and incubated at 37° C. for 5 minutes. […] The chymase solution was added to the mixture of the nucleic acid and substrate to initiate an enzyme reaction. The final chymase concentration in the reaction mixture was 16.7 nM, the final substrate concentration being 100 μM. The plate containing the reaction mixture was set to the microplate reader SpectraMax190 (manufactured by Molecular Devices Corporation), and examined for time-dependent changes in the fluorescence intensity at 37° C. for 5 minutes (or 30 minutes) (excitation wavelength 380 nm, detection wavelength 460 nm). […]

The target in data set [2] is T2, chymase purified from human skin mast cell (native, Calbiochem) (Homo sapiens, UniProt P23946).
T2 construct: Here, the native is chymase purified from human skin mast cell; purchased Calbiochem; host or cells: human skin mast cell (tissue-derived)
T2 sequence (P23946 22-247): T1 sequence (P23946 22-247)
In words: chymase enzyme activity inhibition, native substrate angiotensin I (His-Leu fluorescence). Format: biochemical. The settings on record: Table 2; substrate angiotensin I 50 μM, chymase 0.5 nM, 37° C. 90 min; mean of 2 or 3 measurements. The procedure: A second method of evaluation employs a native substrate. A useful native substrate for chymase is angiotensin I. Here, His-Leu, a peptide fragment released upon degradation of angiotensin I, is fluorescently derivatized, and the fluorescence intensity therefrom is quantified.
In the assay, an enzyme reaction is carried out in 50 μL of solution C. First, 0.3-0.75 ng of chymase (recombinant, manufactured by SIGMA; or native, manufactured by Calbiochem) is diluted in solution C to obtain 5 μL chymase solution. Each nucleic acid is prepared in solution C to obtain 25 μL solutions. 5 μL of each chymase dilution and 25 μL of each nucleic acid solution are mixed, and then the mixture is incubated at 37° C. for 5 minutes. Separately, 20 μL of 125 μM angiotensin I (manufactured by Peptide Institute, Inc.) is prepared in solution C and incubated at 37° C. for 5 minutes. The angiotensin I solution is added to the mixture of chymase and nucleic acid, and the enzyme reaction is initiated. After the reaction was allowed to proceed at 37° C. for 90 minutes, 25 μL of ice-cooled 30% trichloroacetic acid solution is added to terminate the reaction. The entire mixture is centrifuged at 4° C., 14000 rpm for 10 minutes, and 30 μL of the resulting supernatant is used for the subsequent reaction for fluorescent derivatization.
After 30 μL of the supernatant is added to a 96-well plate (Black, manufactured by Costar), 15 μL of 2% o-phthalaldehyde (manufactured by SIGMA) solution in methanol and 170 μL of 0.3M NaOH solution are mixed in each well, and the plate is allowed to stand at room temperature for 10 minutes. Subsequently, 25 μL of 3M HCl solution is added to terminate the reaction. The plate is set to the microplate reader SpectraMax190 (manufactured by Molecular Devices Corporation), and the fluorescence intensity is determined at an excitation wavelength of 355 nm and a fluorescence wavelength of 460 nm.
For control, samples are treated and analyzed in the same manner in two cases: use of SEQ ID NO: 58 (negative control) and use of chymostatin, a known chymotrypsin-like serine protease inhibitor (positive control). In both cases, fluorescence intensity obtained at 0 minute reaction time serves as a blank determination. Taking the fluorescence intensity detected with the addition of an equal volume of solution C, in place of each nucleic acid, in the chymase enzyme reaction as 100%, the inhibitory rate for each test substance is calculated, and the inhibitor concentration required to cause a 50% inhibition of the enzyme activity (IC50) is determined.
Whether the nucleic acids shown by SEQ ID NO: 9 and 10 inhibit the enzyme activity of chymase was determined by the following method. Angiotensin I is converted by chymase to angiotensin II, during which a peptide fragment His-Leu is released. Since the peptide His-Leu is fluorescently derivatized by o-phthalaldehyde, its fluorescence intensity can be quantitatively measured.
The total volume of solution for an enzyme reaction in the assay was set to 50 μL, and the reaction was performed in solution C buffer. At first, native (manufactured by Calbiochem) was diluted with solution C to give 5 μL thereof. Here, the native is chymase purified from human skin mast cell. The nucleic acid was serially diluted with solution C at a concentration of 0.0027-2 μM to give 25 μL thereof. The chymase solution (5 μL) and the nucleic acid solution (25 μL) were mixed, and the mixture was incubated at 37° C. for 5 min. On the other hand, […] angiotensin I (manufactured by PEPTIDE INSTITUTE, INC.) was prepared in solution C to give 20 μL thereof, which was incubated at 37° C. for 5 min. The angiotensin I solution was added to a mixture of chymase and nucleic acid to start an enzyme reaction. The final chymase concentration of the reaction solution was 0.5 nM, and the final substrate concentration was 50 μM. […]

Setting [3] is: Table 5, MCA substrate, amount of chymase 0.005 μg instead of 0.05 μg, one measurement.
Setting [4] is: Table 1, substrate Suc-Ala-Ala-Pro-Phe-MCA 100 μM, chymase 0.05 μg (16.7 nM), 37° C., mean of 2 or 3 measurements.

For “21 (GGCAGAUGAUCGGACAUAACAGGUUAGAUAGAGUUAAAAACCUGGGGUGUCAA; 2'-fluoro at CU, RNA at AG, backbone not given here) [compound 21]”, the IC50 in data set [1] (setting [3]) stood at 5.7 nM.

Consider “22 (GGCAGAUGAUCGGACAUAACAGUUAGAUAGAGUUAAAAACUGGGGUGUCAA; 2'-fluoro at CU, RNA at AG, backbone not given here) [compound 22]”, for which, in data set [1] (setting [3]), the IC50 was determined as 5 nM.

For the molecule “23 (GGCAGAUGAUCGGACAUAACAGUAGAUAGAGUUAAAACUGGGGUGUCAA; 2'-fluoro at CU, RNA at AG, backbone not given here) [compound 23]”, the IC50 in data set [1] (setting [3]) amounted to 7.8 nM.

Take “24 (GGCAGAUGAUCGGACAUAACAUAGAUAGAGUUAAAAUGGGGUGUCAA; 2'-fluoro at CU, RNA at AG, backbone not given here) [compound 24]”: the concentration for half-maximal inhibition (IC50) in data set [1] (setting [3]) was found to be 3.7 nM.

With “25 (GGCAGAUGAUCGGACAUAACAAGAUAGAGUUAAAUGGGGUGUCAA; 2'-fluoro at CU, RNA at AG, backbone not given here) [compound 25]”, the IC50 in data set [1] (setting [3]) was 5.8 nM.

With `CC(C)C[C@H](NC(=O)[C@@H](NC(=O)N[C@@H](Cc1ccccc1)C(=O)O)[C@@H]1CCN=C(N)N1)C(=O)N[C@H](C=O)Cc1ccccc1` [chymostatin, reference compound], the 50% inhibitory concentration (IC50) fell in the range of 100 to 200 nM in data set [1] (setting [4]) and 350 to 500 nM in data set [2].

B1: 1 (nucleic acid)
chain: rGrGrGrArGfCrArGrGrArGrArGrArGrGfUfCrArGrAfUrGrArGfCrAfUrGfCfUfUfUfUfUrGrGfUrArAfCfCrGrAfUrArAfUrGrGrGrGrGfCfCfUrAfUrGfCrGfUrGfCfUrArGfUrGfUrGrA
modifications: aptamer
Turning to B1, the 50% inhibitory concentration (IC50) in data set [1] (setting [4]) amounted to 41 nM.

B2: 7 (nucleic acid)
chain: rGrGrGrArGfCrArGrGrArGrArGrArGrGfUfCrArGrAfUrGfUfUfUrGrGfUrArGfUrArAfCfUrGrGrArAfUrArGrGrGrGfCfUrAfCrArGrGfCfCfUrAfUrGfCrGfUrGfCfUrArGfUrGfUrGrA
modifications: aptamer
In the case of B2, the half-inhibitory concentration (IC50) in data set [1] (setting [4]) was determined as 52 nM.

B3: 8 (nucleic acid)
chain: rGrGrGrArGfCrArGrGrArGrArGrArGrGfUfCrArGrAfUrGrAfUfUrGrAfCrGrAfCfUrAfUrArGrGfUrArAfCfCfUfUfUrAfCrGrGrGrGrGfCfCfUrAfUrGfCrGfUrGfCfUrArGfUrGfUrGrA
modifications: aptamer
Take B3: the IC50 in data set [1] (setting [4]) worked out at 35 nM.

B4: 5 (nucleic acid)
chain: rGrGrGrArGfCrArGrGrArGrArGrArGrGfUfCrArGrAfUrGrAfUrGrAfCfCrGrAfUfUrAfUrArGrGfUrArAfCfCrAfCfUfUrArGrGrGrGrGfCfCfUrAfUrGfCrGfUrGfCfUrArGfUrGfUrGrA
modifications: aptamer
In the case of B4, in data set [1] (setting [4]), the half-inhibitory concentration (IC50) amounted to 7 nM.

B5: 6 (nucleic acid)
chain: rGrGrGrArGfCrArGrGrArGrArGrArGrGfUfCrArGrAfUrGfUfCrAfUrGrAfCfUfUrAfUrArGrGfUrArAfCfCrGrAfUrArAfUrGrGrGrGrGfCfCfUrAfUrGfCrGfUrGfCfUrArGfUrGfUrGrA
modifications: aptamer
Consider B5, for which the concentration for half-maximal inhibition (IC50) in data set [1] (setting [4]) turned out to be 5.5 nM.

B6: 3 (nucleic acid)
chain: rGrGrGrArGfCrArGrGrArGrArGrArGrGfUfCrArGrAfUrGrAfUrArAfCfCrArGfUfUrGrGrGrGrGrGfUfCrArAfUfUrAfCrAfUrGrGrGrAfCfCfUrAfUrGfCrGfUrGfCfUrArGfUrGfUrGrA
modifications: aptamer
Consider B6, for which the IC50 in data set [1] (setting [4]) amounted to 26 nM.

B7: 4 (nucleic acid)
chain: rGrGrGrArGfCrArGrGrArGrArGrArGrGfUfCrArGrAfUrGfUrArAfCfUfCfUrAfUfUrGrArGrGrGrGfCrAfUfCrArGfCrAfCrArGfUrArGfCfCfUrAfUrGfCrGfUrGfCfUrArGfUrGfUrGrA
modifications: aptamer
As for B7, the IC50 in data set [1] (setting [4]) was determined as 10.8 nM.

What is called IC50 is the point on the concentration scale where inhibition reaches its midpoint.
